From patent publication EP0139358B1, “N6-substituted diarylalkyl adenosines, processes for their production and pharmaceutical compositions comprising the same” (priority 1983, dated 1985)
Read-outs that look alike come from different tables or passages of the source.

Legend:
[1] = tested on: conscious rat; experiment: Antihypertensive evaluation (AHP3): aortic blood pressure and heart rate; assay type: in vivo; conditions: for minimal effective dose: read-out: AHP3 BP LAD
Description: […] EVALUATION (AHP3)
This test procedure is described in the following paragraphs.
A Method for the Direct Monitoring of Aortic Blood Pressure and Heart Rate from Conscious Rats
The continuous monitoring of pulsatile blood pressure (BP) from unrestrained conscious rats surgically equipped with polyethylene cannulas was accomplished by means of a computer assisted data capture scheme (CADCS). The absic elements of the methodology are the cannulation procedure and the CADCS.
Cannulation Procedure: Rats were anesthetized with Telazol (1:1 tiletamine HCI and zolazepam HCI); 20-40 mg/kg IM and the descending aorta exposed via a midline incision. Cannulas fabricated from polyethylene tubing were inserted into the aorta via an undersized puncture hole below the renal arteries. The puncture hole was made by a 23 G disposable needle with a section of the aorta clamped off above and below the puncture site. The cannulas, consisting of a PE100 (0.86 mm ID) body and a PE50 (0.58 mm ID) tip, were attached to a trocar, inserted through the psoas muscle, and passed subcutaneously along the midline of the back and externalized between the ears. The cannulas were anchored to the psoas muscle and between the scalulae (3-0 green braided suture). The midline incision was closed in two steps (muscle first, skin second) using continuous over-and over sutures (4-0 chronic). Each rat was then given penicillin 30,000 units subcutaneously (Penicillin G Procaine Sterile Suspension).
The rats were fitted with a harness-spring-swivel assembly designed to protect the cannula and to provide the rat relative freedom of movement. The harnesses were fabricated from nylon hook and loop tape cemented to a metal plate to which spring wires (18-8 stainless steel), were attached to brass swivels. Each polyethylene cannula was channeled through a spring and connected through a swivel to a pressure transducer (Model P23Gb; Statham Instruments; Hato Rey, Puerto Rico) and an infusion pump (Sage model 234-7; Orion Research, Cambridge, Ma) by means of PE100 tubing. While on test, each rat received a continuous slow infusion of heparinized saline solution (approximately 400 I or 40 units of heparin per 24 hour period) to prevent clot formation. Additional "flushes" of the cannula with heparinized saline were carried out when the aortic pulse pressure (systolic minus diastolic) was less than 25 mm Hg.
CADCS: The pulsatile blood pressure and heart rate of each of 32 rats was monitored every minute by means of two in-laboratory microcomputers communicating directly with a data concentrator computer. The data were first stored on the data concentrator disk and then transferred to a magnetic tape for analysis and report generation by the main research computer. The overall scheme involved modulating the primary signal from the pressure transducer, generating the primary data set of the one-minute values for systolic, diastolic, and mean blood pressures and heart rate by the in-lab microcomputer and the storage, analysis, and report generation by the main research computer.
The transducers were connected to analog signal conditioning modules. The modules providing a regulated excitation voltage for the transducers, amplification as required to interface the microprocessors and an active low pass filter to compensate for the pressure wave form distortion produced by the flexible, fluid filled, narrow cannula.
The microcomputers (one for each of two groups of 16 rats) were connected to the input components through the module interface units, an analog-to-digital converter for the pressure wave form signal and the digital inputs for the dose and event marker switches. The microcomputer controlled the sequential acquisition of data from the modular interface units through an internal synchronous time-of-day clock/ time base generator. […]

[2] = tested on: rat heart; experiment: Coronary blood flow (PCS2A): isolated perfused heart
Experimental: CORONARY BLOOD FLOW (PCS2A)
Male rats (400-600 gms) are pretreated with Na haparin 2000 units and anesthetized with Na pentobarbital (50 mg/kg) administered intraperitoneally. Once anesthetized, the rat heart is rapidly excised, the ascending aorta fitted to the aortic perfusion cannula, and […] with a ligature. The coronary arteries are perfused initially at a rate of about 15 ml/min for two to three minutes, afterwhich they are perfused at constant pressure of 70 mm Hg and temperature of 37°C. The electrocardiogram (ECG) is recorded using two platinum electrodes positioned at the base and apex of the left ventricle. A second heart is excised, cannulated, and perfused by the same method outlined above. Both hearts are tested in parallel. The standard physiological salt solution (PSS) is a modified Krebs-Hanseleit bicarbonate buffer of the following composition in mM concentration: NaCI, 127; NaHC03, 25; dextrose, 5.5; Na Pyruvate, 2.0: KCI, 4.7; MgS04, 1.1; KH 2P04, 1.2; CaCl2·2H2O, 2.5; CaNa2 EDTA, 0.05.
A 30-minute stabilization period is observed before starting the test protocol.
The microprocessor control system is a servo mechanism which permits coronary perfusion pressure (CPP) and drug concentration to be maintained constant independent of changes in coronary flow. The level at which CPP and drug concentration are maintained can be changed by commands communicated through the microprocessor keyboard. Dose-response curves are carried out by perfusing concentrated drug solution (DC) at rates proportional to total coronary flow (CFT). Drug concentrations are increased by proportionate increases in the rate of DC infusion over CFT via the microprocessor keyboard. The proportional flow rates for DC:CFT is about .0002:1 at the low end and .02: at the high end of the dose-response curve. Dose-response curves encompassing at least two log doses are carried out by preparing two DCs with a concentration difference of 1:100. Following the first dose range of two log doses, the DC are switched, proportional pumping rate adjusted, and the dose-response curve continued for another two log doses. The standard dose-response curve is carried out in one-half log dose increments starting at a subthreshold dose and ending at a dose which produces near maximal response in activity. Standard reference compounds are tested over the range of 10-^9 to 10-^6M.
Measurements are for heart rate (HR) and coronary flow (CF). Units are: HR, beats/minute (bpm) and CF, milliliters/minute (ml/min). HR is calculated from the ECG strip chart recording and CF is calculated by recording analog outputs from pumps 1 and 2. Outputs from pump #1 = CFT and the output from pump #2 = CF for heart B (CFg). CF for heart A (CFA) is calculated (CFT - CFB = CFA).
Using the above technique, the effects of the compound of Examples 1 and 2 are as follows: […]

[3] = tested on: Swiss-Webster male mice; experiment: Mouse Activity and Screen Test (MAST): inhibition of spontaneous locomotion (LI); assay type: in vivo
Experimental: (§1) Treatments are administered intraperitoneally one hour prior to testing. […] Compounds are dissolved or suspended in 0.2% Methocel. Control animals are injected with Methocel.
Immediately following the screen test, the final phase of testing is initiated by placing each group of three mice in one actophotometer (Life Sciences, 22, 1067-1076, 1978). The actophotometer consists of a cylindrical chamber whose center is occupied by another cylinder which contains the illumination for six photocells located on the perimeter of the chamber. Six light-beam interruptions equal one count. Locomotor activity is recorded by computer at ten minute intervals for 60 minutes. […]

[4] = tested on: Swiss-Webster male mice; experiment: Mouse Activity and Screen Test (MAST): screen test (ST); assay type: in vivo; conditions: for Inhibition of screen test failure: percent of mice falling off the screen; for MAST ST LAD: lowest dose at which an A rating (60-100%) is achieved, screen test, intraperitoneally
Experimental: as §1
The compounds are identified in the Examples.

[5] = tested on: Long-Evans rats or squirrel-monkeys; experiment: Antipsychotic lever-push shock avoidance protocol (SIDR); assay type: in vivo; conditions: Rattus norvegicus; shock avoidance lever pushing; read-out: SIDR ED50
Experimental: Representative compounds of the invention (identified in the Examples) were also tested for antipsychotic activity according to the following protocol (SIDR). […] Mature male Long-Evans rats or squirrel-monkeys are conditioned to push a lever in order to avoid a painful electric footshock. If the animal fails to push the lever, he receives a shock every ten seconds until the lever is pushed. Shocks can be terminated by pushing the lever. Thereafter, as long as the lever is pushed at least once every 20 seconds, there will be no shock. Each animal acts as its own control; one weekly session is used to establish baseline behavior and another session later in the week is used as a drug session. Once patterns of avoidance are established, the effects of standard and unknown compounds are studied. All events are electronically programmed and the response to these events counted or used as feedback to the program.

[6] = lowest dose tested at which a >10% reduction in blood pressure for four consecutive hours is achieved, conscious rat
[7] = coronary flow, isolated perfused rat heart, read-out: PCS2A CF ED50
[8] = heart rate, isolated perfused rat heart, read-out: PCS2A HR ED50
[9] = 10 mg/kg intraperitoneally, one hour prior to testing; vs vehicle
[10] = 30 mg/kg intraperitoneally, one hour prior to testing; vs vehicle
[11] = 100 mg/kg intraperitoneally, one hour prior to testing; vs vehicle
[12] = Mus musculus, ip; read-out: MAST LI LAD

| SMILES | Mμ.c. ↓ ([1]; 10 mg/kg, conscious rat, decrease in mean arterial blood pressure) [%] | HR ↑ ([1]; 10 mg/kg, conscious rat, heart rate increase) [%] | minimal effective dose [1, 6] [mg/kg] | EC50 [2, 7] [nM] | EC50 [2, 8] [nM] | Inhibition of mouse locomotor activity [3, 9] [%] | Inhibition of mouse locomotor activity [3, 10] [%] | Inhibition of mouse locomotor activity [3, 11] [%] | minimal effective dose [3, 12] [mg/kg] | Inhibition of screen test failure ([4]; 10 mg/kg intraperitoneally) [%] | Inhibition of screen test failure ([4]; 30 mg/kg intraperitoneally) [%] | Inhibition of screen test failure ([4]; 100 mg/kg intraperitoneally) [%] | MAST ST LAD [4] [mg/kg] | ED50 [5] [mg/kg] | minimal effective dose ([1]; Rattus norvegicus) [mg/kg] | EC50 ([2]; Rattus norvegicus, read-out: PCS2A CF ED50) [nM] | EC50 ([2]; Rattus norvegicus, read-out: PCS2A HR ED50) [nM] | minimal effective dose ([3]; Mus musculus, ip, read-out: MAST LI LAD) [mg/kg] |
| --- | --- | --- | --- | --- | --- | --- | --- | --- | --- | --- | --- | --- | --- | --- | --- | --- | --- | --- |
| OC[C@H]1O[C@@H](n2cnc3c(NCC(c4ccccc4)c4ccccc4)nc(Cl)nc32)[C@H](O)[C@@H]1O [Example 3, N^6-(2,2-Dipenylethyl)-2-chloroadenosine] | 15 | <20 | 10 | 30000 | > 30000 | 56 | 85 | 92 | 10 | 0 | 11 | 44 | >100 | 9.6 |  |  |  |  |
| Nc1nc(NCC(c2ccccc2)c2ccccc2)c2ncn([C@@H]3O[C@H](CO)[C@@H](O)[C@H]3O)c2n1 [Example 4, N^6-(2,2-Diphenylethyl)-2-aminoadenosine] |  |  | 30 | 1000 | > 100 | 64 | 87 | 95 | 10 | 0 | 11 | 22 | >100 | 3.8 |  |  |  |  |
| OC[C@H]1O[C@@H](n2cnc3c(NC(c4ccccc4)c4ccccc4)ncnc32)[C@H](O)[C@@H]1O [Example 5, N^6-Diphenylmethyladenosine, reference compound] |  |  | > 10 | > 3000 | > 3000 |  |  |  | 100 |  |  |  | >100 | > 50 |  |  |  |  |
| OC[C@H]1O[C@@H](n2cnc3c(NCC(c4ccccc4)c4ccc(F)cc4)ncnc32)[C@H](O)[C@@H]1O (some centres unmarked) [Example 10, N^6-(2-(4-Fluorophenyl)-2-phenylethyl)adenosine] |  |  | 10 | 10 | 1400 |  |  |  | 3 |  |  |  | >100 | 8.6 |  |  |  |  |
| Nc1nc(NCC(c2ccccc2)c2ccc(F)cc2)c2ncn([C@@H]3O[C@H](CO)[C@@H](O)[C@H]3O)c2n1 (some centres unmarked) [Example 12, N^6-(2-(4-Fluorophenyl)-2-phenylethyl)-2-amino adenosine] |  |  | 10 | > 10000 | > 10000 |  |  |  | 30 |  |  |  | >100 |  |  |  |  |  |
| COc1ccc(C(CNc2ncnc3c2ncn3[C@@H]2O[C@H](CO)[C@@H](O)[C@H]2O)c2ccccc2)cc1 (some centres unmarked) [Example 19, N^6-(2-(4-Methoxyphenyl)-2-phenylethyl)adenosine] |  |  | 10 | 30 | > 3000 |  |  |  | 10 |  |  |  | 30 |  |  |  |  |  |
| O=[N+]([O-])c1ccc(C(CNc2ncnc3c2ncn3[C@@H]2O[C@H](CO)[C@@H](O)[C@H]2O)c2ccc([N+](=O)[O-])cc2)cc1 [Example 20, N^6-(2,2-Di-(4-nitrophenyl)ethyl)adenosine] |  |  |  |  |  |  |  |  |  |  |  |  | >100 |  | > 10 | 300 | > 3000 | 100 |
| CC(CNc1nc(N)nc2c1ncn2[C@@H]1O[C@H](CO)[C@@H](O)[C@H]1O)(c1ccccc1)c1ccccc1 [Example 21, N'-(2,2-Diphenylpropyl)-2-aminoadenosine] |  |  | > 10 | > 10000 | > 10000 |  |  |  | 30 |  |  |  | >100 |  |  |  |  |  |
| OC[C@H]1O[C@@H](n2cnc3c(NCC(O)(c4ccccc4)c4ccccc4)ncnc32)[C@H](O)[C@@H]1O [Example 22, N^6-(2,2-Diphenyl-2-hydroxyethyl)adenosine] |  |  | 10 | > 1000 | 500 |  |  |  | 1 |  |  |  | 100 |  |  |  |  |  |
| Nc1nc(NCC(O)(c2ccccc2)c2ccccc2)c2ncn([C@@H]3O[C@H](CO)[C@@H](O)[C@H]3O)c2n1 [Example 23, N^6-(2,2-Diphenyl-2-hydroxyethyl)-2-aminoadenosine] |  |  | > 10 | > 3000 | ~1000 |  |  |  | 3 |  |  |  | >100 |  |  |  |  |  |
